Measured values reported in paper PMC6009956, “Design, synthesis and biological activity of N^4-phenylsubstituted-7H-pyrrolo[2,3-d]pyrimidin-4-amines as dual inhibitors of aurora kinase A and epidermal growth factor receptor kinase” (Journal of Enzyme Inhibition and Medicinal Chemistry, 2017).
Where two headings read alike, the source gives them in different places.

Legend:
[1] = test system: BHY cells; assay: Cell killing, PI staining and FACS, BHY; assay type: cell-based
Method: (§1) FADU, BHY, SAS and CAL cell lines were obtained from ATCC-LGC and were cultured in DMEM (Invitrogen, Germany) supplemented with 10% of heat activated bovine serum (FBS, PAA, Germany), 1% of glutamine, 1% of penicillin-streptomycin (Invitrogen, Germany). To measure proliferation, SCCHN cells were split, reseeded (5 × 10^5 in 25 cm^2 flasks) and counted at the indicated time points. Cells were then replated at the initial density. The fold increase in cell number was calculated, all given results are based on triplicate experiments. To assess cell death 5 × 10^5 cells were stained with propidium iodide (PI, Sigma, Germany). Following incubation, cells were washed, resuspended in PBS, and analysed by flow cytometry. The fraction of PI-positive cells is reported as dead cell fraction.
(§2) Figure 3. […] Cells were incubated with compound 2 for 48 h and then subjected to PI staining and FACS analysis. PI-positive cell fraction as measure of cell death is reported. (B) Four SCCHN cell lines were incubated with 100 μM of compound 2 and counted on the indicated days. Experiments in triplicates, fold growth shown. (C) EGFR expression of SCCHN cell lines. EGFR high and low as detected by western blot analysis (D) The SCCHN cell lines were incubated with 100 μM of compound 2 for 72 h. Percent PI positive cells are given. Experiments in triplicates.

[2] = biological target: T1, AURKA (Homo sapiens, UniProt O14965); assay: DiscoverX competition binding assay, AURKA; conditions: read-out: Binding constant (Kd) AURKA
T1 construct: purchased DiscoverX Corporation (assay run externally by the vendor)
T1 sequence (O14965 1-403): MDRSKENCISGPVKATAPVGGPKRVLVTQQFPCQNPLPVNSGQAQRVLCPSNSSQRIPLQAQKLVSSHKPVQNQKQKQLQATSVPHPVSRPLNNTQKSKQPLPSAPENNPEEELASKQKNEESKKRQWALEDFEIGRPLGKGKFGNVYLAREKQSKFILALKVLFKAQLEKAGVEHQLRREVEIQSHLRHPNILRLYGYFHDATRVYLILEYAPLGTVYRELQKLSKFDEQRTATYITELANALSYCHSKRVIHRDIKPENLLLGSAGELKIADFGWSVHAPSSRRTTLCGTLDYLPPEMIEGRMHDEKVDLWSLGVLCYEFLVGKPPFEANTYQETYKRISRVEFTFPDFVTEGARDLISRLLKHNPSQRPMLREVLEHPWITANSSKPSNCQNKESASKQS
Method: (§3) The assay was performed externally at DiscoverX Corporation using a competition binding assay that quantitatively measures the ability of a compound to compete with an immobilised, active-site directed ligand[24]. The assay is performed by combining three components: DNA-tagged kinase, immobilised ligand and a test compound. The ability of the test compound to compete with the immobilised ligand was measured via quantitative PCR of the DNA tag. An 11-point 3-fold serial dilution of each test compound was prepared in 100% of DMSO at 100× final test concentration and subsequently diluted to 1× in the assay (final DMSO concentration = 1%). […] Binding constants (Kd) were calculated with a standard dose-response curve using the Hill equation.
(§4) Binding Affinities for EGFR, AURKA and AURKB
(§5) The assay was performed externally at DiscoverX Corporation using a competition binding assay that quantitatively measures the ability of a compound to compete with an immobilized, active-site directed ligand for target kinases AURKA, AURKB and EGFR.23 The assay is performed by combining three components: DNA-tagged kinase; immobilized ligand; and a test compound. The ability of the test compound to compete with the immobilized ligand was measured via quantitative PCR of the DNA tag. […] Compound Kds were determined using a compound top […]

[3] = test system: FADU cells; assay: Proliferation (cell counting), FADU; assay type: cell-based; conditions: 100 µM
Method: as §1, §2

[4] = biological target: T2, EGFR (Homo sapiens, UniProt P00533); assay: ADP-Glo kinase assay, EGFR; assay type: biochemical; set-up: purchased BPS Bioscience (assay run externally by the vendor)
[5] = biological target: T3, AURKB (Homo sapiens, UniProt Q96GD4); assay: DiscoverX competition binding assay, AURKB; conditions: read-out: Binding constant (Kd) AURKB
T3 construct: purchased DiscoverX Corporation (assay run externally by the vendor)
Method: as §3, §4, §5

[6] = test system: SAS cells; assay: Cell killing, PI staining and FACS, SAS; assay type: cell-based; conditions: 100 µM, 72 h
Method: as §1, §2

[7] = test system: CAL cells; assay: Cell killing, PI staining and FACS, CAL; assay type: cell-based; conditions: 100 µM, 72 h
Method: as §1, §2

[8] = biological target: T2, EGFR; assay: DiscoverX competition binding assay, EGFR; set-up: purchased DiscoverX Corporation (assay run externally by the vendor); conditions: read-out: Binding constant (Kd) EGFR
Method: as §3, §4, §5

[9] = test system: BHY cells; assay: Proliferation (cell counting), BHY; assay type: cell-based; conditions: 100 µM
Method: as §1, §2

[10] = test system: CAL cells; assay: Proliferation (cell counting), CAL; assay type: cell-based; conditions: 100 µM
Method: as §1, §2

T2 sequence (P00533 25-1210): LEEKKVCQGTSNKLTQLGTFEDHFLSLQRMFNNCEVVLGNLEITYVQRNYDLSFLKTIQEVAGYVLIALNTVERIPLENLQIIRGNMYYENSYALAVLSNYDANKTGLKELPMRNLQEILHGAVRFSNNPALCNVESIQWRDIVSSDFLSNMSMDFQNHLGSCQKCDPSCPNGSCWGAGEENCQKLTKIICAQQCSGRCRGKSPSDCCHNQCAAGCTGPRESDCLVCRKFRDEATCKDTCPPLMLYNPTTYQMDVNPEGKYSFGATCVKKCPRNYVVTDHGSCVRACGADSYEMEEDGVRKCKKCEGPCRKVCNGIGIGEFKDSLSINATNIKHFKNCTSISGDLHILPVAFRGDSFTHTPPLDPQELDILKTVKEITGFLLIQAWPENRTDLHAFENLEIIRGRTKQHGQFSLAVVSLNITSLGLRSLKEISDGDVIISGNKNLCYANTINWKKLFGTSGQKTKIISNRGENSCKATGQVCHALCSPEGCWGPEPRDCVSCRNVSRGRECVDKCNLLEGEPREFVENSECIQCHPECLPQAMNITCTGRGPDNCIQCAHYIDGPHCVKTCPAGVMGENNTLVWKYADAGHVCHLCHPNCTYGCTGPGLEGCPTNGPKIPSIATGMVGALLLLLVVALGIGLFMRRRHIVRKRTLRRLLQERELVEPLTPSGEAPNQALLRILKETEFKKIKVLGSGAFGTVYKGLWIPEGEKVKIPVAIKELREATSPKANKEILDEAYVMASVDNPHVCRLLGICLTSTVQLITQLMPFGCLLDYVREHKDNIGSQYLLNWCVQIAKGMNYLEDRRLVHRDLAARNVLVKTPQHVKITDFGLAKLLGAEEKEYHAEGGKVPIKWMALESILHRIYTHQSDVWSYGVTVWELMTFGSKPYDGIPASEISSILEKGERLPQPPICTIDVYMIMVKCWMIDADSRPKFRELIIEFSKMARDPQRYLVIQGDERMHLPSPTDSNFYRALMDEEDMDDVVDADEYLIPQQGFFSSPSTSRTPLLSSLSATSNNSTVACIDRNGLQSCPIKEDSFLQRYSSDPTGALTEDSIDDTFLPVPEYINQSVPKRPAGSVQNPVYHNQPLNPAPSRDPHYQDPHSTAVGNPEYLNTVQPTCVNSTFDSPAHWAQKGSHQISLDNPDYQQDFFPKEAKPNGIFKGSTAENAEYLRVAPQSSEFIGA
T3 sequence (Q96GD4 whole entry): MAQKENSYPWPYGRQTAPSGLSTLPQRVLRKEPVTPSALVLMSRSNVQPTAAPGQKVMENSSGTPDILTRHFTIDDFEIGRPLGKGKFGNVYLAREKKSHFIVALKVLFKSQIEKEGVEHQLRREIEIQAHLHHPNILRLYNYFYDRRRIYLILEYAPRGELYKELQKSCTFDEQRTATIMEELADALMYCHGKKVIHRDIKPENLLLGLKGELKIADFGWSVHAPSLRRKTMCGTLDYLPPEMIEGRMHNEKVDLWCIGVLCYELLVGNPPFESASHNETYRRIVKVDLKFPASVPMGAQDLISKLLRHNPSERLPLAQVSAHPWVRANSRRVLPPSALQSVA

## Brc1cccc(Nc2ncnc3[nH]ccc23)c1 [Compound 2, N^4-(3-bromophenyl)-7H-pyrrolo[2,3-d]pyrimidine-4-amine]
[1]; 100 µM, 72 h
  Cell killing (PI positive cells): efficient cell killing
[1]; 48 h, read-out: IC50 cellular killing (PI-positive fraction)
  IC50: 150000 nM
[2]
  Kd: 3400 nM
[3]
  Cell growth (fold growth): completely inhibited cell growth
[4]
  EGFR inhibition (in words): single-digit nanomolar EGFR inhibition
[4]; 10 µM ATP, triplicate, read-out: EGFR IC50 ± SD
  IC50: 3.76 ± 0.12 nM
[4]; 10 µM ATP/0.2 mg/ml Poly-Glu-Tyr, read-out: EGFR IC50 (dose-response curve, supplement)
  IC50: 3.8 nM
[4]; Log[nM] 0
  EGFR % Activity Set1: 43%
  EGFR % Activity Set2: 41%
  EGFR % Activity Set3: 41%
[4]; Log[nM] 1.0
  EGFR % Activity Set1: 29%
  EGFR % Activity Set2: 29%
  EGFR % Activity Set3: 28%
[4]; Log[nM] 1.5
  EGFR % Activity Set1: 11%
  EGFR % Activity Set2: 9%
  EGFR % Activity Set3: 11%
[4]; Log[nM] 2.0
  EGFR % Activity Set1: 6%
  EGFR % Activity Set2: 6%
  EGFR % Activity Set3: 6%
[4]; Log[nM] 2.5
  EGFR % Activity Set1: 3%
  EGFR % Activity Set2: 2%
  EGFR % Activity Set3: 3%
[4]; Log[nM] 3.0
  EGFR % Activity Set1: 1%
  EGFR % Activity Set2: 1%
  EGFR % Activity Set3: 1%
[4]; Log[nM] 3.5
  EGFR % Activity Set1: 1%
  EGFR % Activity Set2: 1%
  EGFR % Activity Set3: 0%
[4]; Log[nM] 4.0
  EGFR % Activity Set1: 0%
  EGFR % Activity Set2: 0%
  EGFR % Activity Set3: 0%
[4]; Log[nM] 4.5
  EGFR % Activity Set1: 0%
  EGFR % Activity Set2: 0%
  EGFR % Activity Set3: 0%
[4]; Log[nM] 5.0
  EGFR % Activity Set1: 0%
  EGFR % Activity Set2: 0%
  EGFR % Activity Set3: 0%
[5]
  Kd: 4800 nM
[6]
  Cell killing (PI positive cells): efficient cell killing
[7]
  Cell killing (PI positive cells): efficient cell killing
[8]
  Kd: 67 nM
[9]
  Cell growth (fold growth): completely inhibited cell growth
[10]
  Cell growth (fold growth): completely inhibited cell growth
